Data: patent US12421229B2, “Hydropyrido[1,2-α]pyrazine compounds for the treatment of autoimmune disease” (Hoffmann-La Roche Inc., priority 2019, dated 2025)

target: T1, human TLR8 (Homo sapiens, UniProt Q9NR97); test: HEK293-Blue-hTLR-8 cells assay; assay type: cell-based; settings: HEK293-Blue-hTLR8 cells, R848 stimulation, 20 hrs, SEAP reporter; read-out: HEK/hTLR8 IC50
T1 construct: host or cells: HEK293 (HEK-Blue hTLR8)
T1 sequence (Q9NR97 27-1041): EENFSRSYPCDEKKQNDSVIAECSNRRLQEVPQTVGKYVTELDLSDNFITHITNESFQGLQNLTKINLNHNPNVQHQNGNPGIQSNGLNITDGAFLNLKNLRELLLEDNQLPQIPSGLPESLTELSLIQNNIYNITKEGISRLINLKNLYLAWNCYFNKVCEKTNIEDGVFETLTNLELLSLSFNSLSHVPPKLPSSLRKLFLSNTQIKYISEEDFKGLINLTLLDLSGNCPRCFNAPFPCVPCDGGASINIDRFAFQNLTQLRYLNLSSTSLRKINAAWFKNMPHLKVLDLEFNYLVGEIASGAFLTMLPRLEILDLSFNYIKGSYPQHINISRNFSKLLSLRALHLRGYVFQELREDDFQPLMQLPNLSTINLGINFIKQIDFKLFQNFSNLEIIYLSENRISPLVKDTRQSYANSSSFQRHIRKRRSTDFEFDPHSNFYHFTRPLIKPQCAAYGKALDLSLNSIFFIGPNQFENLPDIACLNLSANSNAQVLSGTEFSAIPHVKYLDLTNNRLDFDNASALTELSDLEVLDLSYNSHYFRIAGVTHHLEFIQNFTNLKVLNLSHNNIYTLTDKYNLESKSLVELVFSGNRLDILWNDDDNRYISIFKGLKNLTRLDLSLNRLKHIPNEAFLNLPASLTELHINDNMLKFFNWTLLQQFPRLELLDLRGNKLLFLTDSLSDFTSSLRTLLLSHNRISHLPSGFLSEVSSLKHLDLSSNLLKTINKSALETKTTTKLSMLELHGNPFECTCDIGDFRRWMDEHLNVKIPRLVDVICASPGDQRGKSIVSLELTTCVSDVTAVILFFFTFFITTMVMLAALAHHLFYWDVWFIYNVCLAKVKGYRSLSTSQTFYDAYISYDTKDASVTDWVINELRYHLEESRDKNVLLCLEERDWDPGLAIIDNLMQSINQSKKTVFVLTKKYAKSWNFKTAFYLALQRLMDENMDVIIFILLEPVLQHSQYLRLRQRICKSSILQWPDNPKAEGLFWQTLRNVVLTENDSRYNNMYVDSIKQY
From the text: A stable HEK293-Blue-hTLR-8 cell line was purchased from InvivoGen (Cat. #: hkb-htlr8, San Diego, California, USA). These cells were originally designed for studying the stimulation of human TLR8 by monitoring the activation of NF-κB. A SEAP (secreted embryonic alkaline phosphatase) reporter gene was placed under the control of the IFN-β minimal promoter fused to five NF-κB and AP-1-binding sites. The SEAP was induced by activating NF-κB and AP-1 via stimulating HEK-Blue hTLR8 cells with TLR8 ligands. Therefore the reporter expression was declined by TLR8 antagonist under the stimulation of a ligand, such as R848, for incubation of 20 hrs. The cell culture supernatant SEAP reporter activity was determined using QUANTI-Blue™ kit (Cat. #: rep-qb1, Invivogen, San Diego, Ca, USA) at a wavelength of 640 nm, a detection medium that turns purple or blue in the presence of alkaline phosphatase.
HEK293-Blue-hTLR8 cells were incubated at a density of 250,000˜450,000 cells/mL in a volume of 170 μL in a 96-well plate in Dulbecco's Modified Eagle's medium (DMEM) containing 4.5 g/L glucose, 50 U/mL penicillin, […], […], 2 mM L-glutamine, 10% (v/v) heat-inactivated fetal bovine serum with addition of 20 μL test compound in a serial dilution in the presence of final DMSO at 1% and 10 μL of 60 uM R848 in above DMEM, perform incubation under 37° C. in a CO2 incubator for 20 hrs. Then 20 μL of the supernatant from each well was incubated with 180 μL Quanti-blue substrate solution at 37° C. for 2 hrs and the absorbance was read at 620˜655 nm using a spectrophotometer. The signaling pathway that TLR8 activation leads to downstream NF-κB activation has been widely accepted, and therefore similar reporter assay was modified for evaluating TLR8 antagonist.

Row | Compound | IC50 [nM]
1 | C[C@@H]1CN(c2ccc(C#N)c3ncccc23)C[C@@H]2CC(c3ccc(C[C@@H]4CNCCO4)cc3)CCN21 (stereo in doubt) [Example 25, 5-[(4R,8R,9aS)-4-methyl-8-[4-[[(2R)-morpholin-2-yl]methyl]phenyl]-1,3,4,6,7,8,9,9a-octahydropyrido[1,2-a]pyrazin-2-yl]quinoline-8-carbonitrile] | 30
2 | C[C@@H]1CN(c2ccc(C#N)c3ncccc23)C[C@@H]2C[C@H](NCc3ccc(N4CCNCC4)cc3)CCN21 [Example 1, 5-[(4R,8R,9aS)-4-methyl-8-[(4-piperazin-1-ylphenyl)methylamino]-1,3,4,6,7,8,9,9a-octahydropyrido[1,2-a]pyrazin-2-yl]quinoline-8-carbonitrile] | 67
3 | C[C@@H]1CN(c2ccc(C#N)c3ncccc23)C[C@@H]2C[C@H](N3CC(c4ccc(N5CCNCC5)cc4)C3)CCN21 [Example 9, 5-[(4R,8R,9aS)-4-methyl-8-[3-(4-piperazin-1-ylphenyl)azetidin-1-yl]-1,3,4,6,7,8,9,9a-octahydropyrido[1,2-a]pyrazin-2-yl]quinoline-8-carbonitrile] | 36
4 | C[C@@H]1CN(c2ccc(C#N)c3ncccc23)C[C@@H]2C[C@@H](Oc3ccc(N4CCNCC4)cn3)CCN21 [Example 11, 5-[(4R,8S,9aS)-4-methyl-8-[(5-piperazin-1-yl-2-pyridyl)oxy]-1,3,4,6,7,8,9,9a-octahydropyrido[1,2-a]pyrazin-2-yl]quinoline-8-carbonitrile] | 15
5 | C[C@@H]1CN(c2ccc(C#N)c3ncccc23)C[C@@H]2C[C@@H](NCc3ccc(N4CCNCC4)cc3)CCN21 [Example 17, 5-[(4R,8S,9aS)-4-methyl-8-[(4-piperazin-1-ylphenyl)methylamino]-1,3,4,6,7,8,9,9a-octahydropyrido[1,2-a]pyrazin-2-yl]quinoline-8-carbonitrile] | 54
6 | C[C@@H]1CN(c2ccc(C#N)c3ncccc23)C[C@@H]2C[C@@H](Oc3cnc(N4CCNCC4)nc3)CCN21 [Example 18, 5-[(4R,8S,9aS)-4-methyl-8-(2-piperazin-1-ylpyrimidin-5-yl)oxy-1,3,4,6,7,8,9,9a-octahydropyrido[1,2-a]pyrazin-2-yl]quinoline-8-carbonitrile] | 6
7 | C[C@@H]1CN(c2ccc(C#N)c3ncccc23)C[C@@H]2C[C@H](Nc3ccc([C@H]4CNCCO4)cc3)CCN21 [Example 20, 5-[(4R,8R,9aS)-4-methyl-8-[4-[(2S)-morpholin-2-yl]anilino]-1,3,4,6,7,8,9,9a-octahydropyrido[1,2-a]pyrazin-2-yl]quinoline-8-carbonitrile] | 50
8 | C[C@@H]1CN(c2ccc(C#N)c3ncccc23)C[C@@H]2C[C@H](Nc3ccc(C[C@@H]4CNCCO4)cc3)CCN21 [Example 21, 5-[(4R,8R,9aS)-4-methyl-8-[4-[[(2R)-morpholin-2-yl]methyl]anilino]-1,3,4,6,7,8,9,9a-octahydropyrido[1,2-a]pyrazin-2-yl]quinoline-8-carbonitrile] | 54

Next, values leading:

Row | IC50 [nM] | Compound
9 | 19 | C[C@@H]1CN(c2ccc(C#N)c3ncccc23)C[C@@H]2C[C@H](c3ccc(N4CCNCC4)nc3)CCN21 (stereo in doubt) [Example 2, 5-[(4R,8R)-4-methyl-8-(6-piperazin-1-yl-3-pyridyl)-1,3,4,6,7,8,9,9a-octahydropyrido[1,2-a]pyrazin-2-yl]quinoline-8-carbonitrile]
10 | 23 | C[C@@H]1CN(c2ccc(C#N)c3ncccc23)CC2C[C@H](c3ccc(N4CCNCC4)cc3)CCN21 (stereo partly drawn) [Example 3, 5-[(4R,8R)-4-methyl-8-(4-piperazin-1-ylphenyl)-1,3,4,6,7,8,9,9a-octahydropyrido[1,2-a]pyrazin-2-yl]quinoline-8-carbonitrile]
11 | 18 | C[C@@H]1CN(c2ccc(C#N)c3ncccc23)C[C@@H]2C[C@H](c3ccc(N4CCNCC4)nc3)CCN21 [Example 4, 5-[(4R,8R,9aS)-4-methyl-8-(6-piperazin-1-yl-3-pyridyl)-1,3,4,6,7,8,9,9a-octahydropyrido[1,2-a]pyrazin-2-yl]quinoline-8-carbonitrile]
12 | 47 | CO[C@H]1CN(c2ccc([C@@H]3CCN4[C@@H](C3)CN(c3ccc(C#N)c5ncccc35)C[C@H]4C)cn2)C[C@@H]1N [Example 6, 5-[(4R,8R,9aS)-8-[6-[(3S,4S)-3-amino-4-methoxy-pyrrolidin-1-yl]-3-pyridyl]-4-methyl-1,3,4,6,7,8,9,9a-octahydropyrido[1,2-a]pyrazin-2-yl]quinoline-8-carbonitrile]
13 | 125 | C[C@@H]1CN(c2ccc(C#N)c3ncccc23)C[C@@H]2C[C@H](c3ccc(N4CC(N)C4)nc3)CCN21 [Example 7, 5-[(4R,8R,9aS)-8-[6-(3-aminoazetidin-1-yl)-3-pyridyl]-4-methyl-1,3,4,6,7,8,9,9a-octahydropyrido[1,2-a]pyrazin-2-yl]quinoline-8-carbonitrile]
14 | 45 | CO[C@H]1CN(c2ccc([C@@H]3CCN4[C@@H](C3)CN(c3ccc(C#N)c5ncccc35)C[C@H]4C)cn2)C[C@H]1N [Example 12, 5-[(4R,8R,9aS)-8-[6-[(3R,4S)-3-amino-4-methoxy-pyrrolidin-1-yl]-3-pyridyl]-4-methyl-1,3,4,6,7,8,9,9a-octahydropyrido[1,2-a]pyrazin-2-yl]quinoline-8-carbonitrile]
15 | 46 | CO[C@@H]1CN(c2ccc([C@@H]3CCN4[C@@H](C3)CN(c3ccc(C#N)c5ncccc35)C[C@H]4C)cn2)C[C@@H]1N [Example 13, 5-[(4R,8R,9aS)-8-[6-[(3S,4R)-3-amino-4-methoxy-pyrrolidin-1-yl]-3-pyridyl]-4-methyl-1,3,4,6,7,8,9,9a-octahydropyrido[1,2-a]pyrazin-2-yl]quinoline-8-carbonitrile]
16 | 48 | CO[C@@H]1CN(c2ccc([C@@H]3CCN4[C@@H](C3)CN(c3ccc(C#N)c5ncccc35)C[C@H]4C)cn2)C[C@H]1N [Example 14, 5-[(4R,8R,9aS)-8-[6-[(3R,4R)-3-amino-4-methoxy-pyrrolidin-1-yl]-3-pyridyl]-4-methyl-1,3,4,6,7,8,9,9a-octahydropyrido[1,2-a]pyrazin-2-yl]quinoline-8-carbonitrile]
17 | 80 | C[C@@H]1CN(c2ccc(C#N)c3ncccc23)C[C@H]2C[C@H](c3ccc(N4CCNCC4)nc3)CCN21 [Example 15, 5-[(4R,8R,9aR)-4-methyl-8-(6-piperazin-1-yl-3-pyridyl)-1,3,4,6,7,8,9,9a-octahydropyrido[1,2-a]pyrazin-2-yl]quinoline-8-carbonitrile]
18 | 8 | C[C@@H]1CN(c2ccc(C#N)c3ncccc23)C[C@@H]2C[C@@H](Oc3ccc(N4CCNCC4)nc3)CCN21 [Example 16, 5-[(4R,8S,9aS)-4-methyl-8-[(6-piperazin-1-yl-3-pyridyl)oxy]-1,3,4,6,7,8,9,9a-octahydropyrido[1,2-a]pyrazin-2-yl]quinoline-8-carbonitrile]
19 | 63 | C[C@@H]1CN(c2ccc(C#N)c3ncccc23)C[C@@H]2C[C@H](c3ccc(N4C[C@@H](N)[C@@H](F)C4)nc3)CCN21 [Example 19, 5-[(4R,8R,9aS)-8-[6-[(3R,4S)-3-amino-4-fluoro-pyrrolidin-1-yl]-3-pyridyl]-4-methyl-1,3,4,6,7,8,9,9a-octahydropyrido[1,2-a]pyrazin-2-yl]quinoline-8-carbonitrile]
